{
  "source": "patent US4916065A",
  "about": "(priority 1988, dated 1990)",
  "key": {"[1]": {"system": "Staphylococcus aureus 209P", "test": "Antibacterial MIC, serial agar dilution", "format": "cell-based", "conditions": "aerobic, nutrient agar"}, "[2]": {"system": "Staphylococcus epidermidis A22152", "test": "Antibacterial MIC, serial agar dilution", "format": "cell-based", "conditions": "aerobic, nutrient agar, kanamycin-resistant"}, "[3]": {"system": "Enterococcus faecalis A9612", "test": "Antibacterial MIC, serial agar dilution", "format": "cell-based", "conditions": "aerobic, nutrient agar"}, "[4]": {"system": "Micrococcus luteus 1001", "test": "Antibacterial MIC, serial agar dilution", "format": "cell-based", "conditions": "aerobic, nutrient agar"}, "[5]": {"system": "Escherichia coli NIHJ", "test": "Antibacterial MIC, serial agar dilution", "format": "cell-based", "conditions": "aerobic, nutrient agar"}, "[6]": {"system": "Escherichia coli Juhl", "test": "Antibacterial MIC, serial agar dilution", "format": "cell-based", "conditions": "aerobic, nutrient agar"}, "[7]": {"system": "Escherichia coli A20665", "test": "Antibacterial MIC, serial agar dilution", "format": "cell-based", "conditions": "aerobic, nutrient agar, kanamycin-resistant"}, "[8]": {"system": "Escherichia coli A9624", "test": "Antibacterial MIC, serial agar dilution", "format": "cell-based", "conditions": "aerobic, nutrient agar, kanamycin-resistant"}, "[9]": {"system": "Enterobacter cloacae A9659", "test": "Antibacterial MIC, serial agar dilution", "format": "cell-based", "conditions": "aerobic, nutrient agar"}, "[10]": {"system": "Proteus mirabilis A9554", "test": "Antibacterial MIC, serial agar dilution", "format": "cell-based", "conditions": "aerobic, nutrient agar"}, "[11]": {"system": "Propionibacterium acnes A21933", "test": "Antibacterial MIC, serial agar dilution", "format": "cell-based", "conditions": "Cutibacterium acnes, anaerobic, GAM agar"}, "[12]": {"system": "Canidia albicans IAM4888", "test": "Antifungal MIC, Sabouraud dextrose agar", "format": "cell-based"}, "[13]": {"system": "Cryptococcus neoformans D49", "test": "Antifungal MIC, Sabouraud dextrose agar", "format": "cell-based"}, "[14]": {"system": "Cryptococcus neoformans IAM4514", "test": "Antifungal MIC, Sabouraud dextrose agar", "format": "cell-based"}, "[15]": {"system": "Trichophyton mentagrophytes D155", "test": "Antifungal MIC, Sabouraud dextrose agar", "format": "cell-based"}, "[16]": {"system": "Trichophyton mentagrophytes #4329", "test": "Antifungal MIC, Sabouraud dextrose agar", "format": "cell-based"}, "[17]": {"system": "Mucor spinosus IF05317", "test": "Antifungal MIC, Sabouraud dextrose agar", "format": "cell-based"}, "[18]": {"system": "aerobic and anaerobic bacteria", "format": "cell-based"}, "[19]": {"system": "Staphylococcus aureus Smith", "format": "in vivo, mice", "conditions": "single, im; for No. of survivor/tested: 5 days", "description": "Mice were challenged intraperitoneally with 100 times the lethal dose of the pathogen in a 5% suspension of hog gastric mucin (American laboratory, Omaha, Nebr.). BU-3420T was administered to mice intramuscularly just before the bacterial challenge."}, "[20]": {"system": "B16-F10", "test": "In vitro cytotoxicity", "format": "cell-based, murine", "conditions": "Mus musculus, 72 hours, neutral red, 540 nm"}, "[21]": {"system": "P388", "test": "In vitro cytotoxicity", "format": "cell-based, murine", "conditions": "Mus musculus, 72 hours, viable cell count", "description": "(§1) On the other hand, the cytotoxic activities against P388 and P388/VCR cells were determined by counting the number of viable cells."}, "[22]": {"system": "P388/VCR", "test": "In vitro cytotoxicity", "description": "as §1"}, "[23]": {"system": "Moser", "test": "In vitro cytotoxicity", "format": "cell-based", "conditions": "Homo sapiens; 72 hours, neutral red, 540 nm"}, "[24]": {"system": "HCT-116", "test": "In vitro cytotoxicity", "format": "cell-based", "conditions": "Homo sapiens, 72 hours, neutral red, 540 nm"}, "[25]": {"system": "DNA synthesis in L1210 cells", "test": "Inhibition of macromolecule synthesis in L1210 leukemia", "format": "cell-based", "conditions": "Mus musculus; 3H-thymidine, L1210, 15 min + 60 min, 37° C."}, "[26]": {"system": "RNA synthesis in L1210 cells", "test": "Inhibition of macromolecule synthesis in L1210 leukemia", "format": "cell-based", "conditions": "Mus musculus; 14C-uridine, L1210, 15 min + 60 min, 37° C."}, "[27]": {"system": "Protein synthesis in L1210 cells", "test": "Inhibition of macromolecule synthesis in L1210 leukemia", "format": "cell-based", "conditions": "Mus musculus; 3H-leucine, L1210, 15 min + 60 min, 37° C."}, "[28]": {"system": "P388 leukemia", "test": "Antitumor activity against P388 leukemia (ip)", "format": "in vivo, mice", "conditions": "for Body weight change on day 4 / MST (median survival time) / T/C: QD × 3, ip"}, "[29]": {"test": "Solubility", "format": "physicochemical"}},
  "note": "Read-outs that look alike come from different tables or passages of the source.",
  "data": [
    {"smiles": "COC1=C(C(=O)O)C(C)C23OC24c2cc(O)c5c(c2NC3C#C/C=C\\C#CC14)C(=O)c1c(O)ccc(O)c1C5=O", "note": "(stereo not shown) [BU-3420T]", "values": [
      {"measurement": "MIC", "setting": "[1]", "result": 0.013, "unit": "ng/mL"},
      {"measurement": "MIC", "setting": "[2]", "result": 0.05, "unit": "ng/mL"},
      {"measurement": "MIC", "setting": "[3]", "result": 0.4, "unit": "ng/mL"},
      {"measurement": "MIC", "setting": "[4]", "result": 0.8, "unit": "ng/mL"},
      {"measurement": "MIC", "setting": "[5]", "result": 50, "unit": "ng/mL"},
      {"measurement": "MIC", "setting": "[6]", "result": 50, "unit": "ng/mL"},
      {"measurement": "MIC", "setting": "[7]", "result": 50, "unit": "ng/mL"},
      {"measurement": "MIC", "setting": "[8]", "result": 50, "unit": "ng/mL"},
      {"measurement": "MIC", "setting": "[9]", "result": 50, "unit": "ng/mL"},
      {"measurement": "MIC", "setting": "[10]", "result": 13, "unit": "ng/mL"},
      {"measurement": "MIC", "setting": "[11]", "result": 13, "unit": "ng/mL"},
      {"measurement": "MIC", "setting": "[12]", "result": 12500, "unit": "ng/mL"},
      {"measurement": "MIC", "setting": "[13]", "result": 12500, "unit": "ng/mL"},
      {"measurement": "MIC", "setting": "[14]", "result": 12500, "unit": "ng/mL"},
      {"measurement": "MIC", "setting": "[15]", "result": 12500, "unit": "ng/mL"},
      {"measurement": "MIC", "setting": "[16]", "result": 12500, "unit": "ng/mL"},
      {"measurement": "MIC", "setting": "[17]", "result": 12500, "unit": "ng/mL"},
      {"measurement": "activity against Gram-negative organisms", "setting": "[18]; Gram-negative organisms, versus Gram-positive", "result": "a little less susceptible"},
      {"measurement": "activity against Gram-positive aerobic bacteria", "setting": "[18]; Gram-positive aerobic bacteria", "result": "intensely potent activity"},
      {"measurement": "activity against anaerobic Gram-positive and negative bacteria versus clindamycin", "setting": "[18]; anaerobic bacteria", "result": "much more active than clindamycin"},
      {"measurement": "activity against certain kanamycin- and clindamycin-resistant bacteria", "setting": "[18]; kanamycin- and clindamycin-resistant bacteria", "result": "susceptible to both compounds"},
      {"measurement": "No. of survivor/tested", "setting": "[19]; 0.01 mg/kg", "result": "0/5"},
      {"measurement": "No. of survivor/tested", "setting": "[19]; 0.04 mg/kg", "result": "0/5"},
      {"measurement": "ED50", "setting": "[19]; Staphylococcus aureus, 120 h, just before challenge, 5 days observation, read-out: PD50 (median protective dose)", "result": 0.13, "unit": "mg/kg"},
      {"measurement": "IC50", "setting": "[20]", "result": 5.2, "unit": "ng/mL"},
      {"measurement": "IC50", "setting": "[21]", "result": 0.4, "unit": "ng/mL"},
      {"measurement": "IC50", "setting": "[22]; Mus musculus, P388/VCR, 72 h", "result": 0.4, "unit": "ng/mL"},
      {"measurement": "cytotoxicity against VCR-sensitive versus resistant P388 cells", "setting": "[22]; P388 versus P388/VCR", "result": "same cytotoxicities against both VCR-sensitive and resistant P388 cells"},
      {"measurement": "IC50", "setting": "[23]", "result": 0.85, "unit": "ng/mL"},
      {"measurement": "IC50", "setting": "[24]", "result": 0.42, "unit": "ng/mL"},
      {"measurement": "IC50", "setting": "[25]", "result": 18, "unit": "ng/mL"},
      {"measurement": "IC50", "setting": "[26]", "result": 9200, "unit": "ng/mL"},
      {"measurement": "IC50", "setting": "[27]", "result": 1500, "unit": "ng/mL"},
      {"measurement": "Body weight change on day 4", "setting": "[28]; 0.5 mg/kg/day", "result": 0.0, "unit": "g"},
      {"measurement": "MST (median survival time)", "setting": "[28]; 0.5 mg/kg/day", "result": 13.0, "unit": "days"},
      {"measurement": "T/C", "setting": "[28]; 0.5 mg/kg/day", "result": 130, "unit": "%"},
      {"measurement": "Body weight change on day 4", "setting": "[28]; 1.0 mg/kg/day", "result": -0.5, "unit": "g"},
      {"measurement": "MST (median survival time)", "setting": "[28]; 1.0 mg/kg/day", "result": 13.5, "unit": "days"},
      {"measurement": "T/C", "setting": "[28]; 1.0 mg/kg/day", "result": 135, "unit": "%"},
      {"measurement": "maximum T/C value", "setting": "[28]; P388, ip, QD × 3", "result": 135, "unit": "%"},
      {"measurement": "solubility", "setting": "[29]; chloroform, ethyl acetate, methanol and ethanol", "result": "slightly soluble"},
      {"measurement": "solubility", "setting": "[29]; dimethyl sulfoxide, dimethylformamide and dioxane", "result": "soluble"},
      {"measurement": "solubility", "setting": "[29]; water and n-hexane", "result": "insoluble"}
    ]}
  ]
}
